The NIST ThermoML archive (doi:10.1016/j.jct.2014.07.026)
± gives the expanded uncertainty stated by the source.

Experiment: mn = molality of the nth substance listed, in mol/kg
Settings: 100 kPa, Liquid; for mass density: Vibrating tube method; for speed of sound: Frequency=2 MHz, Linear variable-path acoustic interferometer

CCCCn1cc[n+](C)c1.C[C@H](N)C(=O)[O-] [3-butyl-1-methyl-1H-imidazolium L-alaninate] + O
Settings	mass density [kg/m3]	speed of sound [m/s]
293.15 K, m1 = 0.03078	999.145 ± 0.11	–
293.15 K, m1 = 0.04697	999.63 ± 0.11	–
293.15 K, m1 = 0.06646	1000.21 ± 0.11	–
293.15 K, m1 = 0.08363	1000.72 ± 0.11	–
293.15 K, m1 = 0.0978	1001.14 ± 0.11	–
293.15 K, m1 = 0.1393	1002.34 ± 0.11	–
293.15 K, m1 = 0.1674	1003.15 ± 0.11	–
293.15 K, m1 = 0.2011	1004.09 ± 0.11	–
293.15 K, m1 = 0.2513	1005.48 ± 0.11	–
293.15 K, m1 = 0.2946	1006.67 ± 0.11	–
293.15 K, m1 = 0.3312	1007.64 ± 0.11	–
293.15 K, m1 = 0.383	1009.05 ± 0.11	–
293.15 K, m1 = 0.4337	1010.33 ± 0.11	–
298.15 K, m1 = 0.03078	997.956 ± 0.11	–
298.15 K, m1 = 0.04697	998.423 ± 0.11	–
298.15 K, m1 = 0.06346	–	1507.5 ± 2.5
298.15 K, m1 = 0.06646	998.985 ± 0.11	–
298.15 K, m1 = 0.08363	999.477 ± 0.11	–
298.15 K, m1 = 0.0978	999.884 ± 0.11	–
298.15 K, m1 = 0.1393	1001.05 ± 0.11	–
298.15 K, m1 = 0.1428	–	1519.5 ± 2.5
298.15 K, m1 = 0.1674	1001.83 ± 0.11	–
298.15 K, m1 = 0.1848	–	1526.1 ± 2.5
298.15 K, m1 = 0.2011	1002.75 ± 0.11	–
298.15 K, m1 = 0.2434	–	1534.3 ± 2.5
298.15 K, m1 = 0.2513	1004.09 ± 0.11	–
298.15 K, m1 = 0.2946	1005.25 ± 0.11	–
298.15 K, m1 = 0.2968	–	1541.6 ± 2.5
298.15 K, m1 = 0.3312	1006.21 ± 0.11	–
298.15 K, m1 = 0.3455	–	1549.5 ± 2.5
298.15 K, m1 = 0.383	1007.55 ± 0.11	–
298.15 K, m1 = 0.3934	–	1555.4 ± 2.5
298.15 K, m1 = 0.4337	1008.88 ± 0.11	–
298.15 K, m1 = 0.4399	–	1561.4 ± 2.5
298.15 K, m1 = 0.4872	–	1567.8 ± 2.5
298.15 K, m1 = 0.546	–	1576.5 ± 2.5
303.15 K, m1 = 0.03078	996.541 ± 0.11	–
303.15 K, m1 = 0.04697	996.999 ± 0.11	–
303.15 K, m1 = 0.06646	997.554 ± 0.11	–
303.15 K, m1 = 0.08363	998.04 ± 0.11	–
303.15 K, m1 = 0.0978	998.438 ± 0.11	–
303.15 K, m1 = 0.1393	999.57 ± 0.11	–
303.15 K, m1 = 0.1674	1000.34 ± 0.11	–
303.15 K, m1 = 0.2011	1001.23 ± 0.11	–
303.15 K, m1 = 0.2513	1002.54 ± 0.11	–
303.15 K, m1 = 0.2946	1003.67 ± 0.11	–
303.15 K, m1 = 0.3312	1004.62 ± 0.11	–
303.15 K, m1 = 0.383	1005.95 ± 0.11	–
303.15 K, m1 = 0.4337	1007.21 ± 0.11	–
308.15 K, m1 = 0.03124	994.926 ± 0.11	–
308.15 K, m1 = 0.05075	995.469 ± 0.11	–
308.15 K, m1 = 0.06032	995.732 ± 0.11	–
308.15 K, m1 = 0.08315	996.374 ± 0.11	–
308.15 K, m1 = 0.09789	996.775 ± 0.11	–
308.15 K, m1 = 0.1399	997.892 ± 0.11	–
308.15 K, m1 = 0.181	998.999 ± 0.11	–
308.15 K, m1 = 0.2108	999.761 ± 0.11	–
308.15 K, m1 = 0.2555	1000.94 ± 0.11	–
308.15 K, m1 = 0.2996	1002.03 ± 0.11	–
308.15 K, m1 = 0.3385	1003.03 ± 0.11	–
308.15 K, m1 = 0.3814	1004.06 ± 0.11	–
308.15 K, m1 = 0.4337	1005.37 ± 0.11	–
313.15 K, m1 = 0.03124	993.094 ± 0.11	–
313.15 K, m1 = 0.05075	993.624 ± 0.11	–
313.15 K, m1 = 0.06032	993.886 ± 0.11	–
313.15 K, m1 = 0.08315	994.504 ± 0.11	–
313.15 K, m1 = 0.09789	994.894 ± 0.11	–
313.15 K, m1 = 0.1399	996.012 ± 0.11	–
313.15 K, m1 = 0.181	997.076 ± 0.11	–
313.15 K, m1 = 0.2108	997.849 ± 0.11	–
313.15 K, m1 = 0.2555	998.984 ± 0.11	–
313.15 K, m1 = 0.2996	1000.07 ± 0.11	–
313.15 K, m1 = 0.3385	1001.05 ± 0.11	–
313.15 K, m1 = 0.3814	1002.07 ± 0.11	–
313.15 K, m1 = 0.4337	1003.34 ± 0.11	–

CC(C)C[C@H](N)C(=O)[O-].CCCCn1cc[n+](C)c1 [1-butyl-3-methylimidazolium L-leucinate] + O
Settings	mass density [kg/m3]	speed of sound [m/s]
293.15 K, m1 = 0.03697	999.215 ± 0.11	–
293.15 K, m1 = 0.05641	999.729 ± 0.11	–
293.15 K, m1 = 0.07287	1000.17 ± 0.11	–
293.15 K, m1 = 0.09146	1000.67 ± 0.11	–
293.15 K, m1 = 0.1132	1001.23 ± 0.11	–
293.15 K, m1 = 0.1544	1002.32 ± 0.11	–
293.15 K, m1 = 0.1911	1003.25 ± 0.11	–
293.15 K, m1 = 0.2335	1004.32 ± 0.11	–
293.15 K, m1 = 0.2827	1005.52 ± 0.11	–
293.15 K, m1 = 0.3424	1007.01 ± 0.11	–
293.15 K, m1 = 0.3957	1008.25 ± 0.11	–
293.15 K, m1 = 0.4527	1009.6 ± 0.11	–
293.15 K, m1 = 0.5127	1010.96 ± 0.11	–
298.15 K, m1 = 0.03697	998.03 ± 0.11	–
298.15 K, m1 = 0.04773	–	1507.7 ± 2.5
298.15 K, m1 = 0.05641	998.525 ± 0.11	–
298.15 K, m1 = 0.07287	998.954 ± 0.11	–
298.15 K, m1 = 0.09146	999.435 ± 0.11	–
298.15 K, m1 = 0.1038	–	1519.1 ± 2.5
298.15 K, m1 = 0.1132	999.978 ± 0.11	–
298.15 K, m1 = 0.1495	–	1528.5 ± 2.5
298.15 K, m1 = 0.1544	1001.01 ± 0.11	–
298.15 K, m1 = 0.1911	1001.9 ± 0.11	–
298.15 K, m1 = 0.1994	–	1538.3 ± 2.5
298.15 K, m1 = 0.2335	1002.93 ± 0.11	–
298.15 K, m1 = 0.2447	–	1547.3 ± 2.5
298.15 K, m1 = 0.2827	1004.13 ± 0.11	–
298.15 K, m1 = 0.2957	–	1557.1 ± 2.5
298.15 K, m1 = 0.3424	1005.51 ± 0.11	–
298.15 K, m1 = 0.3491	–	1567.5 ± 2.5
298.15 K, m1 = 0.3957	1006.7 ± 0.11	–
298.15 K, m1 = 0.4035	–	1577.8 ± 2.5
298.15 K, m1 = 0.4527	1008.01 ± 0.11	–
298.15 K, m1 = 0.4605	–	1588.7 ± 2.6
298.15 K, m1 = 0.5127	1009.37 ± 0.11	–
298.15 K, m1 = 0.5164	–	1599.4 ± 2.6
303.15 K, m1 = 0.03697	996.605 ± 0.11	–
303.15 K, m1 = 0.05641	997.088 ± 0.11	–
303.15 K, m1 = 0.07287	997.496 ± 0.11	–
303.15 K, m1 = 0.09146	997.966 ± 0.11	–
303.15 K, m1 = 0.1132	998.492 ± 0.11	–
303.15 K, m1 = 0.1544	999.496 ± 0.11	–
303.15 K, m1 = 0.1911	1000.35 ± 0.11	–
303.15 K, m1 = 0.2335	1001.35 ± 0.11	–
303.15 K, m1 = 0.2827	1002.52 ± 0.11	–
303.15 K, m1 = 0.3424	1003.84 ± 0.11	–
303.15 K, m1 = 0.3957	1005.02 ± 0.11	–
303.15 K, m1 = 0.4527	1006.25 ± 0.11	–
303.15 K, m1 = 0.5127	1007.54 ± 0.11	–
308.15 K, m1 = 0.03562	994.921 ± 0.11	–
308.15 K, m1 = 0.05661	995.428 ± 0.11	–
308.15 K, m1 = 0.07558	995.879 ± 0.11	–
308.15 K, m1 = 0.0961	996.37 ± 0.11	–
308.15 K, m1 = 0.114	996.791 ± 0.11	–
308.15 K, m1 = 0.1577	997.799 ± 0.11	–
308.15 K, m1 = 0.1946	998.637 ± 0.11	–
308.15 K, m1 = 0.2469	999.798 ± 0.11	–
308.15 K, m1 = 0.2813	1000.57 ± 0.11	–
308.15 K, m1 = 0.345	1001.95 ± 0.11	–
308.15 K, m1 = 0.3992	1003.13 ± 0.11	–
308.15 K, m1 = 0.4555	1004.31 ± 0.11	–
308.15 K, m1 = 0.5127	1005.43 ± 0.11	–
313.15 K, m1 = 0.03562	993.087 ± 0.11	–
313.15 K, m1 = 0.05661	993.589 ± 0.11	–
313.15 K, m1 = 0.07558	994.031 ± 0.11	–
313.15 K, m1 = 0.0961	994.501 ± 0.11	–
313.15 K, m1 = 0.114	994.919 ± 0.11	–
313.15 K, m1 = 0.1577	995.899 ± 0.11	–
313.15 K, m1 = 0.1946	996.701 ± 0.11	–
313.15 K, m1 = 0.2469	997.848 ± 0.11	–
313.15 K, m1 = 0.2813	998.573 ± 0.11	–
313.15 K, m1 = 0.345	999.913 ± 0.11	–
313.15 K, m1 = 0.3992	1001.03 ± 0.11	–
313.15 K, m1 = 0.4555	1002.11 ± 0.11	–
313.15 K, m1 = 0.5127	1003.22 ± 0.11	–
